From ChEMBL document CHEMBL4699592, “Nature-Inspired (di)Azine-Bridged Bisindole Alkaloids with Potent Antibacterial In Vitro and In Vivo Efficacy against Methicillin-Resistant Staphylococcus aureus” (J Med Chem, 2020) come the findings set out here.

Experiment [1] concerns Staphylococcus aureus. Kind of experiment: Antibacterial activity against methicillin susceptible Staphylococcus aureus ATCC 25923 at 0.78 to 100 uM after 24 hrs by broth microdilution method. The following applies: dose microM 0.78-100, time 24.0 hrs. The experiment is classed as functional, organism-based.
Experiment [2] deals with Staphylococcus aureus. Kind of experiment: Antibacterial activity against vancomycin-sensitive Staphylococcus aureus T144 infected in Balb/c mouse assessed as reduction in bacterial burden at 5 mg/kg applied topically measured after 12 days by colony counting method. The experiment is classed as functional, organism-based. As to conditions: time 12.0 day.
Experiment [3] deals with Enterococcus faecalis. The experiment in a line: Antibacterial activity against Enterococcus faecalis ATCC 51299 at 0.78 to 100 uM after 24 hrs by broth microdilution method. The experiment is classed as functional, organism-based. The following applies: dose microM 0.78-100, time 24.0 hrs.
Another experiment concerns Acinetobacter baumannii. Kind of experiment: Antibacterial activity against Acinetobacter baumannii ATCC BAA-1605 after 24 hrs by broth microdilution method. It is filed as functional.
A further experiment relates to Klebsiella pneumoniae. Kind of experiment: Synergistic antibacterial activity against Klebsiella pneumoniae ATCC 700603 assessed as FICI after 24 hrs in presence of colistin by checkerboard assay. It is filed as functional.
The test system of experiment [4] is Cell membrane. The experiment in a line: Induction of cell membrane permeabilization in GFP-expressing Staphylococcus aureus ATCC 700699 assessed as increase in cellular ATP leakage at 5 fold MIC measured after 0.5 hrs by Bactiter-glo assay. The experiment is classed as subcellular.
For experiment [5], the system named is Cell membrane. Kind of experiment: Induction of cell membrane permeabilization in methicillin sensitive Staphylococcus aureus ATCC 29213 at 5 fold MIC measured after 30 mins by propidium iodide/DAPI staining based fluorescence microscopic analysis. The experiment is classed as subcellular.
Experiment [6] deals with Enterococcus faecalis. The experiment in a line: Antibacterial activity against Enterococcus faecalis ATCC 29212 at 0.78 to 100 uM after 24 hrs by broth microdilution method. The experiment is classed as functional, organism-based. The following applies: dose microM 0.78-100, time 24.0 hrs.
Experiment [7] has as its target Pyruvate kinase PKM (Oryctolagus cuniculus) (UniProt P11974). The experiment in a line: Inhibition of rabbit muscle pyruvate kinase up to 12.5 uM using phosphoenolpyruvate as substrate measured for 5 mins by LDH-coupled assay. The following applies: dose microM <=12.5, time 5.0 min.
A further experiment concerns Enterococcus faecium. Kind of experiment: Antibacterial activity against vancomycin-resistant Enterococcus faecium ATCC 700221 at 0.78 to 100 uM after 24 hrs by broth microdilution method. It is filed as functional, organism-based. As to conditions: dose microM 0.78-100, time 24.0 hrs.

Calls of active or inactive are those of the source. The calls are words filed in the database; no cut-off is given here.

Sequence of Pyruvate kinase PKM (Oryctolagus cuniculus) (P11974 whole entry): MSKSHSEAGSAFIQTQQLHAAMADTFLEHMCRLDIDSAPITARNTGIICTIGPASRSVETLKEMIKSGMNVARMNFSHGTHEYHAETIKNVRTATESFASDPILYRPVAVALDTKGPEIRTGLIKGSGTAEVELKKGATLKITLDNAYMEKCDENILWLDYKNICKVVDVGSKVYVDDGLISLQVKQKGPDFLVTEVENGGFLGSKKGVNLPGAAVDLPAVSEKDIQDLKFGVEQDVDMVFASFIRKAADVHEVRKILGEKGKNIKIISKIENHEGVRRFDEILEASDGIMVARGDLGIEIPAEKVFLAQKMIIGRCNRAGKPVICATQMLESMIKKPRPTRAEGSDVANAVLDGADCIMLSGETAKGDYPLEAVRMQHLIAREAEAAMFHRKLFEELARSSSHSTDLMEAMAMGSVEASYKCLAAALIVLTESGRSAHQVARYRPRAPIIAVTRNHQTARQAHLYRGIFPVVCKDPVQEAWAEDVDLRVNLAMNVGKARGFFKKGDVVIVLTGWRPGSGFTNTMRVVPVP

On to `Clc1ccc2[nH]cc(-c3cccc(-c4c[nH]c5ccc(Cl)cc45)n3)c2c1`, for which the result with Staphylococcus aureus [1], in the experiment on Staphylococcus aureus [2], in the experiment with Enterococcus faecalis [3], with Cell membrane [4], in the experiment with Cell membrane [5] and with Enterococcus faecalis [6] was Active. In the experiment with Enterococcus faecium, the outcome was Active. The MIC against Acinetobacter baumannii was more than 100 µM. For the same molecule, the “fractional inhibitory concentration index (FICI)” value with Klebsiella pneumoniae is “<=0.25”. In addition, in experiment [7], the inhibition result was “inactive”.
